Tests used:
[1] = tested on: CD8+/TCR- FC from NOD or NOR BM; test: Activation markers and morphology of sorted CD8+/TCR- FC cultured with CpG-ODN; format: cell-based, mouse
Description: (§1) FIG. 2. Expression of activation markers on FC. (A) Sorted CD8^+/TCR^− FC (100,000) from NOD or NOR BM were cultured with medium or CpG-ODN for 18 h and stained with anti-MHC Class II I-A^d, CD86 or CD80 FITC labeled mAb, or isotype controls. The data shown are representative of three experiments. (B) Level of expression of activation markers on FC with or without CpG-ODN stimulation. The results are percent of CD8^+/TCR^− FC total from 3 separate experiments. (C) The morphology of FC was examined using Wright-Giemsa staining under optical microscopy after CpG-ODN stimulation. (D) P-preDC FC were cultured with CpG-ODN or medium only. Culture cell-free supernatants were collected after 18 h and MIP-1α/CCL3, MCP-1/CCL2, RANTES/CCL5, IP-10, IL-6, GM-CSF, and TNF-α were measured by LINCO plex multiplex immunoassay.
(§2) FC were cultured alone or with 1 μM TLR-9 ligand CpG-ODN 1668 (TCCATGACGTTCCGATGCT) (SEQ ID NO:1) (GIBCO BRL Custom Primers) (13) for 18 h. Supernatants were assayed for cytokines by Linco Diagnostic (St Charles, Mo.) using LINCOplex™ Multiplex immunoassay and cells were stained with anti-CD80, anti-CD86, or anti-MHC class II I-A^d (39-10-8) FITC mAb, with appropriately matched isotype controls.
(§3) Wright-Giemsa staining was performed on cytospins of 100,000 FC after fixed in methanol. Slides were examined for dendritic morphology under optical microscopy.
We evaluated whether NOD FC resemble NOR FC in response to CpG-ODN stimulation.

[2] = tested on: p-preDC FC from NOD or NOR mice; test: Chemokine and cytokine production by p-preDC FC after CpG-ODN stimulation (LINCOplex multiplex immunoassay); format: cell-based, mouse
Description: as §1, §2
We also examined chemokine and cytokine production by NOD and NOR p-preDC FC after CpG-ODN stimulation. In the presence of CpG-ODN, p-preDC FC produced more MIP-1α/CCL3, RANTES/CCL5, IP-10, IL-6, and TNF-α, compared to the level of those in absence of stimulation (FIG. 2D).

[3] = tested on: p-preDC FC; details: cited from earlier work
[4] = tested on: FC in peripheral blood of NOD mice; test: FL treatment of NOD donor mice: phenotype and morphology of FL-mobilized PB FC; format: in vivo, mouse
Description: (§4) FIG. 6. FL-mobilized PB FC facilitate HSC engraftment in allogeneic recipients. Recombinant human FL (expressed from CHO cells) (kindly provided by Amgen; Thousand Oaks, Calif.) was diluted in 0.1% mouse serum albumin (MSA; Sigma, St Louis, Mo.) at a concentration of 100 μg/ml. Donor NOD female mice were injected with 10 μg of FL once daily subcutaneously from day 0 to day 9. Control mice received saline injections. (A) Flow cytometric analysis of subpopulations in sorted FL-mobilized PB FC. (B) Sorted FL-PB FC were examined after Wright-Giemsa staining by optical microscopy. (C) Survival of recipients of HSC plus FL-mobilized PB FC in allogeneic model (NOD→B10). B10 recipients were conditioned with 950 cGy TBI and transplanted with […] from untreated NOD donors either alone or mixed with 30,000 purified FC from untreated NOD bone marrow, or from FL-mobilized PB FC from NOD mice. (D) and (E) Multilineage typing of representative B10 recipients of NOD HSC alone or recipients of NOD HSC plus FL-PB FC. Multilineage data are from PB 3 months after transplantation and analyzed based on the lymphoid and myeloid gate. Data shown are from one representative recipient. A total of 3 to 5 recipients were analyzed per group.
Sorted FC (purity was ≧95%) were incubated with Fc receptor block (anti-CD16/CD32) before staining with lineage-specific markers: anti-CD11 FITC, CD11b APC, CD14 FITC, NK1.1 FITC, DX5 FITC, B220 PerCP, Gr-1 APC and CD19 APC, as previously described (4). Sorted FC were analyzed for p-preDC FC as B220^+/CD11c^+/CD11b^− using Cell Quest Software (Becton Dickinson).
as §3
To test whether FL-treatment can restore the function of NOD FC, the phenotype and function of FL-PB FCs were evaluated. NOD mice were treated with FL for 10 days. FC were sorted from PB, and sorted FC were stained with B220, CD11c, CD19, NK1.1DX5, and CD11b mAbs.

[5] = tested on: HSC engraftment in B10 recipients; test: Facilitation of HSC engraftment by FL-mobilized PB FC in allogeneic recipients (NOD to B10); format: in vivo, mouse
Description: as §4
In the syngeneic model, recipients were conditioned with 950 cGy TBI from a Cesium source (Nordion, Ontario, ON, Canada) and transplanted with 500 HSC±30,000 FC populations by tail vein injection≧6 h after irradiation (14). In the allogeneic model, recipients conditioned with 950 cGy TBI were transplanted with 5,000 HSC±30,000 FL-PB FC (4).
Engraftment of donor cells was evaluated by PBL typing using 3-color flow cytometry, as previously described (15).
It was next evaluated whether FL-treatment can restore the facilitating function of NOD FC. […] To test function of FL-PB FC, HSC were sorted from BM of untreated NOD mice and FC from the PB of FL-treated NOD mice. Conditioned B10 recipients received 5,000 HSC plus 30,000 FL-PB FC. Control mice were transplanted with 5,000 HSC±30,000 FC from BM of untreated NOD mice. […] 13% and 20% of recipients of HSC alone (n=9) or HSC plus FC (n=8) from untreated NOD mice survived over 120 days, respectively (FIG. 6C).
Three-color flow cytometric analysis was performed.

[6] = tested on: NOD mice; details: cited from earlier work
[7] = tested on: PB p-preDC; details: administration of FL into human volunteers; cited from earlier work
[8] = in response to CpG-ODN stimulation
[9] = with CpG-ODN compared to absence of stimulation, 18 h supernatant
[10] = FL-PB FC versus untreated NOD BM FC
[11] = NOD mice, 10 μg FL once daily s.c. for 10 days, FC sorted from PB
[12] = treatment of NOD donors with FL

CpG-ODN: TLR-9 ligand CpG-ODN 1668 (TCCATGACGTTCCGATGCT) (SEQ ID NO:1) (listed as DNA, chemistry not given here)
CD80 expression on NOD FC ([1]; NOD BM FC, 1 μM CpG-ODN, 18 h): markedly decreased | CD86 expression on NOD FC ([1]; NOD BM FC, 1 μM CpG-ODN, 18 h): up-regulated | Morphology of NOD FC ([1]; NOD FC after CpG treatment, Wright-Giemsa): did not exhibit a mature morphology | CD86 expression on NOR FC ([1]; NOR BM FC, 1 μM CpG-ODN, 18 h): up-regulated | Morphology / activation state of NOR FC ([1]; NOR FC after CpG-ODN stimulation, compared to NOD FC, Wright-Giemsa): more activated state | IL-6 amount, NOR p-preDC FC compared to NOD p-preDC FC ([2]; after CpG-ODN stimulation): 5 × | MIP-1α/CCL3 amount, NOR p-preDC FC compared to NOD p-preDC FC ([2]; after CpG-ODN stimulation): 2.1 × | RANTES/CCL5 amount, NOR p-preDC FC compared to NOD p-preDC FC ([2]; after CpG-ODN stimulation): 3.5 × | TNF-α amount, NOR p-preDC FC compared to NOD p-preDC FC ([2]; after CpG-ODN stimulation): 1.9 × | GM-CSF production by NOD p-preDC FC [2, 8]: do not | GM-CSF production by NOR p-preDC FC [2, 8]: more efficiently | IL-6 production by p-preDC FC [2, 9]: produced more | IP-10 production by p-preDC FC [2, 9]: produced more | MIP-1α/CCL3 production by p-preDC FC [2, 9]: produced more | RANTES/CCL5 production by p-preDC FC [2, 9]: produced more | TNF-α production by p-preDC FC [2, 9]: produced more | Interferon (IFN)-α and tumor necrosis factor (TNF)-α production by p-preDC FC ([3]; in response to TLR-9 ligand (CpG-ODN) stimulation): produce | CD4+/CD25- T cells differentiation into CD4+/CD25+/FoxP3+ Treg cells in vitro ([3]; p-preDC FC stimulated with CpG-ODN): promote

B1: FL: Recombinant human FL (expressed from CHO cells), provided by Amgen; human FLT3 ligand sequence shown in SEQ ID NO:2 (protein)
chain: MTVLAPAWSPTTYLLLLLLLSSGLSGTQDCSFQHSPISSDFAVKIRELSDYLLQDYPVTVASNLQDEELCGGLWRLVLAQRWMERLKTVAGSKMQGLLERVNTEIHFVTKCAFQPPPSCLRFVQTNISRLLQETSEQLVALKPWITRQNFSRCLELQCQPDSSTLPPPWSPRPLEATAPTAPQPPLLLLLLLPVGLLLLAAAWCLHWQRTRRRTPRPGEQVPPVPSPQDLLLVEH
modifications: Homo sapien
Percentage of CD19+ FC [4, 10]: remained at same levels | Percentage of p-preDC FC [4, 10]: remained at same levels | B220-/CD11c+/CD11b+ DC subpopulation in FL-PB FC [4, 11]: significant increase | NK1.1+DX5+ subpopulation in FL-PB FC [4, 11]: significant increase | Total number of FCs in peripheral blood [4, 12]: expanded | Activation state (dendritic morphology) of FL mobilized NOD PB FC ([4]; versus untreated NOD BM FC, Wright-Giemsa): more activated state | Recipients survived 120 days ([5]; B10 recipients (950 cGy TBI) of 5,000 untreated NOD HSC plus 30,000 PB FC from FL-treated NOD mice, n=8): 63% | Engraftment of HSC ([5]; HSC plus PB FC from FL-treated NOD mice in B10 recipients): significantly enhanced | Multilineage donor chimerism ([5]; recipients of HSC plus FL-PB FC, followed >4 months, three-color flow cytometry): showed donor chimerism for multilineages | Facilitating function of NOD FC in vivo [5, 12]: restored | Diabetes progression ([6]; FL treatment of NOD mice): significant delay | Production of defective mature myeloid DC, plasmacytoid DC in spleen and pancreatic lymph nodes ([6]; FL treatment of NOD mice): restored production | Treg in pancreatic lymph nodes ([6]; FL treatment of NOD mice): significantly increased | Insulitis and progression to diabetes ([6]; prediabetic NOD mice treated with FL): significantly decreased | Number of PB p-preDC in humans [7]: increase
